Test results: PubChem BioAssay (NCI)
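Five concentrations, 48 hours, 96-well plates. Definition used: TGI = concentration required for complete inhibition of growth.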

What was measured:
Assay in all cases: NCI tumour cell line growth inhibition, 48 h
OVCAR-8 ovarian = tested on: OVCAR-8 ovarian
HCC-2998 colon = tested on: HCC-2998 colon
NCI-H460 lung = tested on: NCI-H460 lung
LXFL 529 NSCLC = tested on: LXFL 529 NSCLC
SNB-75 CNS = tested on: SNB-75 CNS
TK-10 renal = tested on: TK-10 renal
MALME-3M melanoma = tested on: MALME-3M melanoma
NCI-H226 lung = tested on: NCI-H226 lung
SW-620 colon = tested on: SW-620 colon
SK-MEL-5 melanoma = tested on: SK-MEL-5 melanoma
ACHN renal = tested on: ACHN renal
SR leukemia = tested on: SR leukemia
NCI-H23 lung = tested on: NCI-H23 lung
CAKI-1 renal = tested on: CAKI-1 renal
SNB-19 CNS = tested on: SNB-19 CNS
NCI-H522 lung = tested on: NCI-H522 lung
DLD-1 colon = tested on: DLD-1 colon
SK-OV-3 ovarian = tested on: SK-OV-3 ovarian
XF 498 CNS = tested on: XF 498 CNS
A498 renal = tested on: A498 renal
A549 NSCLC = tested on: A549 NSCLC
HL-60(TB) leukemia = tested on: HL-60(TB) leukemia
OVCAR-4 ovarian = tested on: OVCAR-4 ovarian
DMS 114 small cell lung = tested on: DMS 114 small cell lung
M19-MEL melanoma = tested on: M19-MEL melanoma
SF-295 CNS = tested on: SF-295 CNS
HCT-116 colon = tested on: HCT-116 colon
DMS 273 small cell lung = tested on: DMS 273 small cell lung
LOX IMVI melanoma = tested on: LOX IMVI melanoma
UACC-257 melanoma = tested on: UACC-257 melanoma
RXF 393 renal = tested on: RXF 393 renal
SNB-78 CNS = tested on: SNB-78 CNS
K-562 leukemia = tested on: K-562 leukemia
HT29 colon = tested on: HT29 colon
HOP-18 NSCLC = tested on: HOP-18 NSCLC
HOP-92 NSCLC = tested on: HOP-92 NSCLC
RPMI-8226 leukemia = tested on: RPMI-8226 leukemia
OVCAR-5 ovarian = tested on: OVCAR-5 ovarian
SK-MEL-28 melanoma = tested on: SK-MEL-28 melanoma
U251 CNS = tested on: U251 CNS
SN12C renal = tested on: SN12C renal
SK-MEL-2 melanoma = tested on: SK-MEL-2 melanoma
HOP-62 NSCLC = tested on: HOP-62 NSCLC
EKVX NSCLC = tested on: EKVX NSCLC
CCRF-CEM leukemia = tested on: CCRF-CEM leukemia
UACC-62 melanoma = tested on: UACC-62 melanoma
HCT-15 colon = tested on: HCT-15 colon
MOLT-4 leukemia = tested on: MOLT-4 leukemia
OVCAR-3 ovarian = tested on: OVCAR-3 ovarian
KM20L2 colon = tested on: KM20L2 colon
IGROV1 ovarian = tested on: IGROV1 ovarian
UO-31 renal = tested on: UO-31 renal
SF-268 CNS = tested on: SF-268 CNS
KM12 colon = tested on: KM12 colon
M14 melanoma = tested on: M14 melanoma
SF-539 CNS = tested on: SF-539 CNS
786-0 renal = tested on: 786-0 renal
COLO 205 colon = tested on: COLO 205 colon
RXF-631 renal = tested on: RXF-631 renal
NCI/ADR-RES ovarian = tested on: NCI/ADR-RES ovarian
MCF7 breast = tested on: MCF7 breast
SN12K1 renal = tested on: SN12K1 renal
P388/ADR leukemia = tested on: P388/ADR leukemia
P388 leukemia = tested on: P388 leukemia

Measured: TGI

O=S(=O)(O)c1ccc([Se][Se]c2ccc(S(=O)(=O)O)cc2)cc1
96.6 µM: SR leukemia
not listed: RXF-631 renal | NCI/ADR-RES ovarian | MCF7 breast | SN12K1 renal | P388/ADR leukemia | P388 leukemia
> 100 µM: all other assays above

O=Cc1cc2sc(C=O)cc2s1
34.3 µM: A498 renal
59.2 µM: NCI-H226 lung
not listed: ACHN renal | HOP-18 NSCLC | SK-MEL-28 melanoma | SK-MEL-2 melanoma | NCI/ADR-RES ovarian | MCF7 breast | SN12K1 renal | P388/ADR leukemia | P388 leukemia
> 100 µM: all other assays above

C=C1C(=O)OC2C=C(C)CC3C=C(CCC=C(C)CCC12)C(=O)O3 (centres undefined)
145 µM: DMS 273 small cell lung | SF-268 CNS
85.1 µM: P388 leukemia
151 µM: DMS 114 small cell lung
123 µM: SN12K1 renal
106 µM: MCF7 breast | UACC-257 melanoma
234 µM: UO-31 renal
117 µM: NCI-H23 lung
57.9 µM: NCI-H522 lung
114 µM: NCI/ADR-RES ovarian
140 µM: CAKI-1 renal
135 µM: M19-MEL melanoma
157 µM: SN12C renal
105 µM: HCC-2998 colon
196 µM: SNB-75 CNS
174 µM: OVCAR-8 ovarian | NCI-H226 lung
93.2 µM: P388/ADR leukemia
199 µM: SF-539 CNS
78.5 µM: HOP-18 NSCLC
85.6 µM: HCT-116 colon
137 µM: DLD-1 colon
159 µM: MOLT-4 leukemia
119 µM: SK-MEL-28 melanoma | KM20L2 colon
280 µM: SK-OV-3 ovarian
228 µM: K-562 leukemia
200 µM: SF-295 CNS
118 µM: EKVX NSCLC
104 µM: CCRF-CEM leukemia
107 µM: SW-620 colon
82.3 µM: RXF 393 renal
101 µM: SK-MEL-2 melanoma
208 µM: OVCAR-5 ovarian
109 µM: KM12 colon
216 µM: HOP-62 NSCLC
138 µM: SK-MEL-5 melanoma
121 µM: U251 CNS
148 µM: NCI-H460 lung
73.4 µM: HL-60(TB) leukemia
115 µM: IGROV1 ovarian | COLO 205 colon
131 µM: OVCAR-4 ovarian | HT29 colon | HCT-15 colon
222 µM: SNB-78 CNS
116 µM: HOP-92 NSCLC | OVCAR-3 ovarian
203 µM: A549 NSCLC
> 81.4 µM: MALME-3M melanoma
167 µM: A498 renal
113 µM: UACC-62 melanoma
271 µM: SNB-19 CNS
155 µM: RPMI-8226 leukemia
95.1 µM: LOX IMVI melanoma
